Results: the CheMixHub viscosity set

Assay: xn = mol fraction of the nth substance listed

COC(C)=O + Cc1cccc(C)c1
viscosity [mPa·s], 101 kPa
Details	298.15 K	308.15 K
x1 = 0.0409	0.565	0.515
x1 = 0.151	0.524	0.484
x1 = 0.2488	0.493	0.46
x1 = 0.3516	0.466	0.438
x1 = 0.4423	0.446	0.421
x1 = 0.4928	0.436	0.412
x1 = 0.5514	0.426	0.403
x1 = 0.6505	0.412	0.388
x1 = 0.7498	0.4	0.376
x1 = 0.8506	0.392	0.364
x1 = 0.9429	0.386	0.356

c1ccc2ncccc2c1 + Cc1cccc(O)c1
viscosity [mPa·s], 101.3 kPa
Details	x1 = 0.0998	x1 = 0.198	x1 = 0.3012	x1 = 0.3984	x1 = 0.4984	x1 = 0.5985	x1 = 0.6965	x1 = 0.798	x1 = 0.8948
298 K	15.26	19.93	25.3	22.87	15.79	11.02	7.376	5.594	4.358
303 K	11.51	15.03	19.24	17.85	12.71	8.925	6.266	4.872	3.761
308 K	8.895	11.46	15.1	14.05	9.986	7.269	5.301	4.223	3.291
313 K	6.912	8.917	11.94	11.42	8.111	6.172	4.512	3.686	2.959
318 K	5.586	7.128	9.595	9.188	6.608	5.184	3.835	3.204	2.62
